One assay deals with GST-MERTK 578-872 (Homo sapiens (Human), UniProt Q12866). The assay can be described thus: MERTK kinase homogeneous time resolved fluorescence (HTRF) binding assay. The settings on record: 1 nM kinase, fluorescein-labeled kinase tracer at Kd, 60 minutes at room temperature; read-out: Mer HTRF IC50. The method, then: (§1) MERTK, AXL, TYRO3 Kinase Homogeneous Time Resolved Fluorescence (HTRF) Assay
(§2) Assays were performed in black, flat-bottom, 1536-well plates. The reactions were incubated at room temperature for 60 minutes, following which the HTRF signals, ratio of fluorescence intensities at emission wavelengths for fluorescein acceptor (520 nm) and terbium donor (495 nm), the 520/495 ratio, were measured on the Envision Plate reader. Inhibition data were calculated from the 520/495 ratio generated by the no protein control reactions for 100% inhibition and vehicle-only reactions for 0% inhibition, and dose response curves generated to determine the concentration required for inhibiting 50% of the HTRF signal (IC50). Compounds were dissolved at 10 mM in dimethylsulfoxide (DMSO) and evaluated at eleven concentrations.
(TR-FRET usually uses a lanthanide donor and a delayed reading to cut background.)

In another assay the target is HIS-AXL 473-End (Homo sapiens (Human), UniProt P30530). The assay can be described thus: AXL kinase homogeneous time resolved fluorescence (HTRF) binding assay. To be noted: 1 nM kinase, fluorescein-labeled kinase tracer at Kd, 60 minutes at room temperature. The method, then:
as §1, §2

For 32 compounds, IC50 results are on record in US20230339891A1, “URACIL DERIVATIVES AS MER-AXL INHIBITORS” (BRISTOL-MYERS SQUIBB COMPANY, priority 2018, published 2023).

Chain of HIS-AXL 473-End (P30530 473-894): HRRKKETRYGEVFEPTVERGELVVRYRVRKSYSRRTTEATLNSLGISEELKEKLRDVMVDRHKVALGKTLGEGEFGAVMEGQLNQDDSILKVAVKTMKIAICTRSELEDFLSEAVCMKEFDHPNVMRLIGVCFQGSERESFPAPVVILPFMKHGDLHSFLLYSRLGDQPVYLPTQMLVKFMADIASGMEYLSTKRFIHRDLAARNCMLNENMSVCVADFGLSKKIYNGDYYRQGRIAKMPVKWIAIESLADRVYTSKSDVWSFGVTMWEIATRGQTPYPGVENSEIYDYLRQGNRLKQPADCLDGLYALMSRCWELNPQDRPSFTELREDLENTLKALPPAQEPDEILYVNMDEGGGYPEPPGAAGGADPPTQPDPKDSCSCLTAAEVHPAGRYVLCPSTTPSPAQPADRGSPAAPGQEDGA
Chain of GST-MERTK 578-872 (Q12866 578-872): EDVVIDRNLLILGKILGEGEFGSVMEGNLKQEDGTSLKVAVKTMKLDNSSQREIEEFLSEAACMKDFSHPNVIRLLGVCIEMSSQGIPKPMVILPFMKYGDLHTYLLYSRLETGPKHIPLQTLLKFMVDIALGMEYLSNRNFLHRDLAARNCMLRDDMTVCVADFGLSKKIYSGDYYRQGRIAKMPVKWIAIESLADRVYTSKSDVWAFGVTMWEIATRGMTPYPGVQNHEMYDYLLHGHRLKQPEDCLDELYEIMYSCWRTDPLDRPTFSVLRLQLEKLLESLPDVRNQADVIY

As usually defined, the IC50 is the concentration that inhibits the measured activity by half. For `CC(C)n1cc(C(=O)Nc2ccc(Oc3ccnc(Nc4ccc(C(=O)NCC(C)(C)O)cn4)c3)c(F)c2)c(=O)n(-c2ccc(F)cc2)c1=O` [Example 92, N-(3-Fluoro-4-{[2-({5-[(2-hydroxy-2-methylpropyl)carbamoyl]pyridin-2-yl}amino)pyridin-4-yl]oxy}phenyl)-3-(4-fluorophenyl)-2,4-dioxo-1-(propan-2-yl)-1,2,3,4-tetrahydropyrimidine-5-carboxamide], the IC50 at GST-MERTK 578-872 came to 1.9 nM; on HIS-AXL 473-End, 0.4 nM.

Consider `CC(C)n1cc(C(=O)Nc2ccc(Oc3ccnc(Nc4ccc(C(F)(F)F)c(N5CCN(S(=O)(=O)N(C)C)CC5)n4)c3)c(F)c2)c(=O)n(-c2ccc(F)cc2)c1=O` [Example 141], for which the figures for the IC50 on GST-MERTK 578-872 and at HIS-AXL 473-End were 17 nM and 14700 nM, respectively.

For the compound `CC(C)n1cc(C(=O)Nc2ccc(Oc3ccnc(Nc4cnc(C#N)cn4)c3)c(F)c2)c(=O)n(-c2ccc(F)cc2)c1=O` [Example 26], the figures for the concentration for half-maximal inhibition (IC50) at GST-MERTK 578-872 and on HIS-AXL 473-End were 60 nM and 18 nM, respectively.

`CC(C)n1cc(C(=O)Nc2ccc(Oc3ccnc(Nc4ccnc(N5CCCC5)n4)c3)c(F)c2)c(=O)n(C(C)C)c1=O` [Example 108]: the IC50 on GST-MERTK 578-872 was determined as 9.1 nM; on HIS-AXL 473-End it was 3.8 nM.

As to `CC(C)n1cc(C(=O)Nc2ccc(Oc3ccnc(Nc4ccc(S(N)(=O)=O)cn4)c3)c(F)c2)c(=O)n(-c2ccc(F)cc2)c1=O` [Example 19], the IC50 at GST-MERTK 578-872 was found to be 4.4 nM; at HIS-AXL 473-End it was 1.6 nM.

Turning to `CC(C)n1cc(C(=O)Nc2ccc(Oc3ccnc(Nc4ccc(-c5nccs5)cn4)c3)c(F)c2)c(=O)n(-c2ccc(F)cc2)c1=O` [Example 23], the figures for the IC50 at GST-MERTK 578-872 and at HIS-AXL 473-End were 55 nM and 31 nM, respectively.

For the compound `Cc1cnc(Nc2cc(Oc3ccc(NC(=O)c4cn(C(C)C)c(=O)n(-c5ccc(F)cc5)c4=O)cc3F)ccn2)cn1` [Example 27], the IC50 was 19 nM at GST-MERTK 578-872 and 6.8 nM at HIS-AXL 473-End.

Take `CC(C)n1cc(C(=O)Nc2ccc(Oc3ccnc(Nc4ccnc(N5CCC(S(C)(=O)=O)CC5)n4)c3)c(F)c2)c(=O)n(-c2ccc(F)cc2)c1=O` [Example 114]: the IC50 was 1.4 nM at GST-MERTK 578-872 and 0.6 nM at HIS-AXL 473-End.

Turning to `CC(C)n1cc(C(=O)Nc2ccc(Oc3ccnc(Nc4ncc(C(F)(F)F)cn4)c3)c(F)c2)c(=O)n(-c2ccc(F)cc2)c1=O` [Example 30], the IC50 stood at 165 nM on GST-MERTK 578-872 and 48 nM on HIS-AXL 473-End.

As to `CC(C)n1cc(C(=O)Nc2ccc(Oc3ccnc(Nc4ccc(C(=O)NCCN5CCOCC5)cn4)c3)c(F)c2)c(=O)n(-c2ccc(F)cc2)c1=O` [Example 93], the IC50 came to 1.6 nM at GST-MERTK 578-872 and 0.4 nM at HIS-AXL 473-End.

For `COc1cccc(-n2c(=O)c(C(=O)Nc3ccc(Oc4ccnc(Nc5ccc(S(=O)(=O)N(C)C)cn5)c4)c(F)c3)cn(C(C)C)c2=O)c1` [Example 71], the concentration for half-maximal inhibition (IC50) at GST-MERTK 578-872 turned out to be 40 nM; at HIS-AXL 473-End it was 12 nM.

Turning to `CC(C)n1cc(C(=O)Nc2ccc(Oc3ccnc(Nc4ccc(S(=O)(=O)N(C)C)cn4)c3)c(F)c2)c(=O)n(-c2ccc(F)c(F)c2)c1=O` [Example 69], the IC50 at GST-MERTK 578-872 was 23 nM; on HIS-AXL 473-End, 18 nM.

Regarding `CC(C)n1cc(C(=O)Nc2ccc(Oc3ccnc(Nc4ccc(-n5ccnc5)cn4)c3)c(F)c2)c(=O)n(-c2ccc(F)cc2)c1=O` [Example 24], the IC50 at GST-MERTK 578-872 was determined as 12 nM; at HIS-AXL 473-End it was 5.6 nM.

Turning to `CC(=O)c1cccc(-n2c(=O)c(C(=O)Nc3ccc(Oc4ccnc(Nc5ccc(S(=O)(=O)N(C)C)cn5)c4)c(F)c3)cn(C(C)C)c2=O)c1` [Example 73], the IC50 on GST-MERTK 578-872 is 24 nM; on HIS-AXL 473-End, 59 nM.

With `CC(C)n1cc(C(=O)Nc2ccc(Oc3ccnc(Nc4ccc(C(C)(C)O)cn4)c3)c(F)c2)c(=O)n(-c2ccc(F)cc2)c1=O` [Example 15], the IC50 on GST-MERTK 578-872 was found to be 8 nM; at HIS-AXL 473-End, 1.7 nM.

Turning to `CC(C)n1cc(C(=O)Nc2ccc(Oc3ccnc(Nc4ccnc(N5CCN(S(C)(=O)=O)CC5)n4)c3)c(F)c2)c(=O)n(-c2ccc(F)cc2)c1=O` [Example 102, N-{3-fluoro-4-[(2-{[2-(4-methanesulfonylpiperazin-1-yl)pyrimidin-4-yl]amino}pyridin-4-yl)oxy]phenyl}-3-(4-fluorophenyl)-2,4-dioxo-1-(propan-2-yl)-1,2,3,4-tetrahydropyrimidine-5-carboxamide], the results for the IC50 at GST-MERTK 578-872 and on HIS-AXL 473-End were 0.5 nM and 0.9 nM, respectively.

For the compound `CN(C)S(=O)(=O)c1ccc(Nc2cc(Oc3ccc(NC(=O)c4cn(C5CC5)c(=O)n(-c5ccccc5)c4=O)cc3F)ccn2)nc1` [Example 43], the IC50 is 21 nM on GST-MERTK 578-872 and 222 nM at HIS-AXL 473-End.

Regarding `CC(C)n1cc(C(=O)Nc2ccc(Oc3ccnc(Nc4ccc(C#N)c(N5CCN(S(C)(=O)=O)CC5)n4)c3)c(F)c2)c(=O)n(-c2ccc(F)cc2)c1=O` [Example 116, N-{4-[(2-{[5-cyano-6-(4-methanesulfonylpiperazin-1-yl)pyridin-2-yl]amino}pyridin-4-yl)oxy]-3-fluorophenyl}-3-(4-fluorophenyl)-2,4-dioxo-1-(propan-2-yl)-1,2,3,4-tetrahydropyrimidine-5-carboxamide], the IC50 was determined as 1 nM on GST-MERTK 578-872 and 1.5 nM on HIS-AXL 473-End.

On to `COC(=O)N1CCN(c2nc(Nc3cc(Oc4ccc(NC(=O)c5cn(C(C)C)c(=O)n(-c6ccc(F)cc6)c5=O)cc4F)ccn3)ccc2S(=O)(=O)N(C)C)CC1` [Example 100], for which the IC50 at GST-MERTK 578-872 is 2.1 nM; at HIS-AXL 473-End, 3.1 nM.

For the compound `CCc1cnc(Nc2cc(Oc3ccc(NC(=O)c4cn(C(C)C)c(=O)n(-c5ccc(F)cc5)c4=O)cc3F)ccn2)nc1` [Example 32], the IC50 at GST-MERTK 578-872 was 342 nM; on HIS-AXL 473-End, 0.9 nM.

On to `CC(C)n1cc(C(=O)Nc2ccc(Oc3ccnc(Nc4ccc5cc[nH]c5n4)c3)c(F)c2)c(=O)n(-c2ccc(F)cc2)c1=O` [Example 25], for which the IC50 on GST-MERTK 578-872 turned out to be 13 nM; at HIS-AXL 473-End, 3.6 nM.

For the compound `COC(=O)c1ccc(Nc2cc(Oc3ccc(NC(=O)c4cn(C(C)C)c(=O)n(-c5ccc(F)cc5)c4=O)cc3F)ccn2)nc1` [Example 14, Methyl 6-((4-(2-fluoro-4-(3-(4-fluorophenyl)-1-isopropyl-2,4-dioxo-1,2,3,4-tetrahydropyrimidine-5-carboxamido)phenoxy)pyridin-2-yl)amino)nicotinate], the values for the IC50 at GST-MERTK 578-872 and on HIS-AXL 473-End were 11 nM and 3.6 nM, respectively.

Turning to `CN(C)S(=O)(=O)c1ccc(Nc2cc(Oc3ccc(NC(=O)c4cn(C5CC5)c(=O)n(-c5ccc(F)cc5)c4=O)cc3F)ccn2)nc1` [Example 40, 1-Cyclopropyl-N-{4-[(2-{[5-(dimethylsulfamoyl)pyridin-2-yl]amino}pyridin-4-yl)oxy]-3-fluorophenyl}-3-(4-fluorophenyl)-2,4-dioxo-1,2,3,4-tetrahydropyrimidine-5-carboxamide], the IC50 on GST-MERTK 578-872 turned out to be 11 nM; on HIS-AXL 473-End it was 3.8 nM.

As to `CC(C)n1cc(C(=O)Nc2ccc(Oc3ccnc(Nc4ccc(S(=O)(=O)N(C)C)cn4)c3)c(F)c2)c(=O)n(-c2ccc(C(F)(F)F)cc2)c1=O` [Example 65], the IC50 was found to be 127 nM at GST-MERTK 578-872 and 100 nM at HIS-AXL 473-End.

On to `CC(C)n1cc(C(=O)Nc2ccc(Oc3ccnc(Nc4ccc(NS(C)(=O)=O)cn4)c3)c(F)c2)c(=O)n(-c2ccc(F)cc2)c1=O` [Example 87, N-[3-fluoro-4-({2-[(5-methanesulfonamidopyridin-2-yl)amino]pyridin-4-yl}oxy)phenyl]-3-(4-fluorophenyl)-2,4-dioxo-1-(propan-2-yl)-1,2,3,4-tetrahydropyrimidine-5-carboxamide], for which the IC50 turned out to be 6.7 nM on GST-MERTK 578-872 and 16 nM on HIS-AXL 473-End.

Take `CC(C)n1cc(C(=O)Nc2ccc(Oc3ccnc(Nc4ccc(N5CCC(N)C5=O)cn4)c3)c(F)c2)c(=O)n(-c2ccc(F)cc2)c1=O` (stereo not shown) [Example 90]: the IC50 came out at 3.1 nM at GST-MERTK 578-872 and 2.2 nM at HIS-AXL 473-End.

`CC(C)n1cc(C(=O)Nc2ccc(Oc3ccnc(Nc4ccc(C#N)c(N5CCCC5)n4)c3)c(F)c2)c(=O)n(-c2ccc(F)cc2)c1=O` [Example 117]: the IC50 stood at 2.8 nM on GST-MERTK 578-872 and 3 nM on HIS-AXL 473-End.

As to `COC[C@H](C)n1cc(C(=O)Nc2ccc(Oc3ccnc(Nc4ccc(S(=O)(=O)N(C)C)cn4)c3)c(F)c2)c(=O)n(-c2ccc(F)cc2)c1=O` [Example 45], the IC50 was found to be 40 nM on GST-MERTK 578-872 and 21 nM on HIS-AXL 473-End.

For the compound `CC(C)n1cc(C(=O)Nc2ccc(Oc3ccnc(Nc4cccc(C(F)(F)F)n4)c3)c(F)c2)c(=O)n(-c2ccc(F)cc2)c1=O` [Example 9], the IC50 on GST-MERTK 578-872 worked out at 16 nM; on HIS-AXL 473-End it was 29 nM.

In the case of `CC(C)n1cc(C(=O)Nc2ccc(Oc3ccnc(Nc4ccc(S(=O)(=O)N(C)C)cn4)c3)c(F)c2)c(=O)n(-c2ccc(F)cc2)c1=O` [Example 20], the figures for the IC50 on GST-MERTK 578-872 and on HIS-AXL 473-End were 12 nM and 4.7 nM, respectively.

As for `CC(C)n1cc(C(=O)Nc2ccc(Oc3ccnc(Nc4ccc(S(=O)(=O)N(C)C)cn4)c3)c(F)c2)c(=O)n(-c2ccc(F)cn2)c1=O` [Example 48], the IC50 on GST-MERTK 578-872 worked out at 15 nM; on HIS-AXL 473-End it was 4.4 nM.

For `Cc1cc(Nc2cc(Oc3ccc(NC(=O)c4cn(C(C)C)c(=O)n(-c5ccc(F)cc5)c4=O)cc3F)ccn2)nc(N2CCN(S(C)(=O)=O)CC2)c1` [Example 136, N-{3-fluoro-4-[(2-{[6-(4-methanesulfonylpiperazin-1-yl)-4-methylpyridin-2-yl]amino}pyridin-4-yl)oxy]phenyl}-3-(4-fluorophenyl)-2,4-dioxo-1-(propan-2-yl)-1,2,3,4-tetrahydropyrimidine-5-carboxamide], the values for the IC50 on GST-MERTK 578-872 and at HIS-AXL 473-End were 3.9 nM and 1040 nM, respectively.
